Measurements from article PMC1481600 (AIDS Research and Therapy, 2006).
Read-outs that look alike come from different tables or passages of the source. Non-standard residues stand in square brackets, D forms with d. Residues, ends and D or L forms follow the SMILES beside them. Groups on a side chain read outwards from the residue. *: point of attachment. Biotin = O=C1N[C@H]2[C@H](CS[C@H]2CCCCC(=O)*)N1; Ahx = NCCCCCC(=O)O

Tests used:
HIV-1 strain LAV-Vbu3 [1] = test system: HIV-1 strain LAV-Vbu3
in vitro = settings: human
HIV-1 strain LAV-Vbu3 [2] = assay: microbe, parasite or virus in culture; settings: Human immunodeficiency virus 1, MT2, 120 h, read-out: EC50 (anti-HIV activity)
[3] = design: method as in PMID 15546199; settings: spiked plasma, 37°C; cited from earlier work
[4] = design: method as in PMID 15546199; settings: PBS pH 7.4, 37°C; cited from earlier work

Row | Structure (SMILES) | Therapeutic Index (LC50/EC50) (HIV-1 strain LAV-Vbu3 [1]; strain LAV-Vbu3) | CC50 (in vitro) | anti-HIV potency relative to L-Tat9 (times more potent) (HIV-1 strain LAV-Vbu3 [1]; MT-2 cells infected with HIV-1) | EC50 (HIV-1 strain LAV-Vbu3 [1]; strain LAV-Vbu3) | other results
1 | CC(=O)N[C@@H](CCCNC(=N)N)C(=O)N[C@@H](CCCCN)C(=O)N[C@@H](CCCCN)C(=O)N[C@@H](CCCNC(=N)N)C(=O)N[C@@H](CCCNC(=N)N)C(=O)N[C@@H](CCC(N)=O)C(=O)N[C@@H](CCCNC(=N)N)C(=O)N[C@@H](CCCNC(=N)N)C(=O)N[C@@H](CCCNC(=N)N)C(N)=O [L-Tat9, reference compound] | 1 | 53.8 µM |  |  | Therapeutic Index (LC50/EC50) (HIV-1 strain LAV-Vbu3 [1]; listed as L-form of Tat9): poorest therapeutic index; EC50 (HIV-1 strain LAV-Vbu3 [1]; read-out: EC50 (anti-HIV activity), MT-2 cells infected with HIV-1 strain LAV-Vbu3, MOI 0.01, MTT, 5 days): 51.3 µM
2 | CC(=O)N[C@H](CS)C(=O)N[C@H](CCCCNC(=O)CCCCCNC(=O)CCCC[C@@H]1SC[C@@H]2NC(=O)N[C@@H]21)C(=O)N[C@H](CCCNC(=N)N)C(=O)N[C@H](CCCNC(=N)N)C(=O)N[C@H](CCCNC(=N)N)C(=O)N[C@H](CCC(N)=O)C(=O)N[C@H](CCCNC(=N)N)C(=O)N[C@H](CCCNC(=N)N)C(=O)N[C@H](CCCCN)C(=O)N[C@H](CCCCN)C(=O)N[C@H](CCCNC(=N)N)C(N)=O [R.I.CK(biotin)-Tat9] (Ac-[dC][dK]([Ahx-Biotin])[dR][dR][dR][dQ][dR][dR][dK][dK][dR]-NH2) | 2600 | 46.8 µM | 2850 fold | 0.018 µM | anti-HIV potency relative to RI-Tat9 (times more potent) (HIV-1 strain LAV-Vbu3 [1]; MT-2 cells infected with HIV-1): 47 fold; R (ratio of the EC50 of the bioconjugate to that of its parent drug R.I.CK-Tat9 or SQV) (HIV-1 strain LAV-Vbu3 [1]; MT-2 cells, HIV-1 LAV-Vbu3, MOI 0.01): 0.02
3 | CC(=O)N[C@H](CS)C(=O)N[C@H](CCCCN)C(=O)N[C@H](CCCNC(=N)N)C(=O)N[C@H](CCCNC(=N)N)C(=O)N[C@H](CCCNC(=N)N)C(=O)N[C@H](CCC(N)=O)C(=O)N[C@H](CCCNC(=N)N)C(=O)N[C@H](CCCNC(=N)N)C(=O)N[C@H](CCCCN)C(=O)N[C@H](CCCCN)C(=O)N[C@H](CCCNC(=N)N)C(N)=O [R.I.CK-Tat9, N-acetyl-ckrrrqrrkkr-NH2] (Ac-[dC][dK][dR][dR][dR][dQ][dR][dR][dK][dK][dR]-NH2) | 35 | 29.8 µM | 60 fold | 0.85 µM | 
4 | CC(C)(C)NC(=O)[C@@H]1C[C@@H]2CCCC[C@@H]2CN1C[C@@H](O)[C@H](Cc1ccccc1)NC(=O)[C@H](CC(N)=O)NC(=O)c1ccc2ccccc2n1 [SQV(MeSO3H) (control), saquinavir, reference compound] |  |  |  |  | EC50 (HIV-1 strain LAV-Vbu3 [2]): 0.015 µM; Therapeutic Index (LC50/EC50) (HIV-1 strain LAV-Vbu3 [1]; MT-2 cells, LC50 in uninfected cells / EC50 in infected cells): 1667; CC50 at 5 days (in vitro): 25 µM
5 | CC(C)(C)NC(=O)[C@@H]1C[C@@H]2CCCC[C@@H]2CN1C[C@@H](OC(=O)C(N)CS)[C@H](Cc1ccccc1)NC(=O)[C@H](CC(N)=O)NC(=O)c1ccc2ccccc2c1 (stereo partly shown) [SQV-Cys ester] |  |  |  |  | half-life of release of active SQV (ester bond) [3]: 0.9 h; half-life of release of active SQV (ester bond) [4]: 14 h
